Measurements taken from the NIST ThermoML archive (doi:10.1021/acs.jced.8b00554).

Assay: xn = mol fraction of the nth substance listed
Conditions: Liquid, Vibrating tube method

CCCCCCCCC [nonane] + CCCO
Conditions | mass density [kg/m3]
323.15 K, 12010 kPa, x2 = 0.8941 | 768.14
323.15 K, 12020 kPa, x2 = 0.1231 | 706.6
323.15 K, 12020 kPa, x2 = 0.2315 | 710.98
323.15 K, 12020 kPa, x2 = 0.4272 | 720.79
323.15 K, 13000 kPa, x2 = 0.1231 | 707.48
323.15 K, 13000 kPa, x2 = 0.4272 | 721.68
323.15 K, 13000 kPa, x2 = 0.7021 | 743.81
323.15 K, 13010 kPa, x2 = 0.2315 | 711.85
323.15 K, 13010 kPa, x2 = 0.8941 | 768.99
323.15 K, 13020 kPa, x2 = 0.3229 | 715.95
323.15 K, 14000 kPa, x2 = 0.1231 | 708.35
323.15 K, 14000 kPa, x2 = 0.2315 | 712.73
323.15 K, 14000 kPa, x2 = 0.8941 | 769.85
323.15 K, 14010 kPa, x2 = 0.4272 | 722.55
323.15 K, 14020 kPa, x2 = 0.3229 | 716.82
323.15 K, 14020 kPa, x2 = 0.7021 | 744.68
323.15 K, 15000 kPa, x2 = 0.1231 | 709.2
323.15 K, 15000 kPa, x2 = 0.3229 | 717.67
323.15 K, 15010 kPa, x2 = 0.7021 | 745.54
323.15 K, 15010 kPa, x2 = 0.8941 | 770.68
323.15 K, 15020 kPa, x2 = 0.2315 | 713.58
323.15 K, 15020 kPa, x2 = 0.4272 | 723.42
323.15 K, 16010 kPa, x2 = 0.1231 | 710.02
323.15 K, 16010 kPa, x2 = 0.8941 | 771.51
323.15 K, 16020 kPa, x2 = 0.2315 | 714.42
323.15 K, 16020 kPa, x2 = 0.3229 | 718.52
323.15 K, 16020 kPa, x2 = 0.4272 | 724.26
323.15 K, 16020 kPa, x2 = 0.7021 | 746.38
323.15 K, 17000 kPa, x2 = 0.2315 | 715.27
323.15 K, 17000 kPa, x2 = 0.3229 | 719.35
323.15 K, 17000 kPa, x2 = 0.8941 | 772.34
323.15 K, 17010 kPa, x2 = 0.4272 | 725.1
323.15 K, 17020 kPa, x2 = 0.1231 | 710.86
323.15 K, 17020 kPa, x2 = 0.7021 | 747.22
323.15 K, 18000 kPa, x2 = 0.1231 | 711.67
323.15 K, 18010 kPa, x2 = 0.2315 | 716.08
323.15 K, 18010 kPa, x2 = 0.3229 | 720.19
323.15 K, 18010 kPa, x2 = 0.4272 | 725.91
323.15 K, 18010 kPa, x2 = 0.7021 | 748.04
323.15 K, 18010 kPa, x2 = 0.8941 | 773.16
323.15 K, 19010 kPa, x2 = 0.1231 | 712.48
323.15 K, 19010 kPa, x2 = 0.2315 | 716.87
323.15 K, 19010 kPa, x2 = 0.3229 | 720.99
323.15 K, 19010 kPa, x2 = 0.4272 | 726.74
323.15 K, 19020 kPa, x2 = 0.7021 | 748.85
323.15 K, 19020 kPa, x2 = 0.8941 | 773.95
323.15 K, 20000 kPa, x2 = 0.4272 | 727.54
323.15 K, 20010 kPa, x2 = 0.2315 | 717.66
323.15 K, 20010 kPa, x2 = 0.8941 | 774.74
323.15 K, 20020 kPa, x2 = 0.1231 | 713.24
323.15 K, 20020 kPa, x2 = 0.3229 | 721.77
323.15 K, 20020 kPa, x2 = 0.7021 | 749.67
333.15 K, 100 kPa, x2 = 0.1231 | 686.98
333.15 K, 100 kPa, x2 = 0.2315 | 690.52
333.15 K, 100 kPa, x2 = 0.3229 | 694.34
333.15 K, 100 kPa, x2 = 0.4272 | 699.84
333.15 K, 100 kPa, x2 = 0.7021 | 721.88
333.15 K, 100 kPa, x2 = 0.8941 | 747.76
333.15 K, 1000 kPa, x2 = 0.8941 | 748.19
333.15 K, 1010 kPa, x2 = 0.2315 | 691.2
333.15 K, 1010 kPa, x2 = 0.3229 | 694.86
333.15 K, 1010 kPa, x2 = 0.4272 | 700.34
333.15 K, 1010 kPa, x2 = 0.7021 | 722.39
333.15 K, 1020 kPa, x2 = 0.1231 | 687.08
333.15 K, 2000 kPa, x2 = 0.3229 | 695.92
333.15 K, 2000 kPa, x2 = 0.4272 | 701.38
333.15 K, 2010 kPa, x2 = 0.1231 | 688.14
333.15 K, 2010 kPa, x2 = 0.2315 | 692.25
333.15 K, 2010 kPa, x2 = 0.8941 | 749.18
333.15 K, 2020 kPa, x2 = 0.7021 | 723.42
333.15 K, 3000 kPa, x2 = 0.1231 | 689.17
333.15 K, 3000 kPa, x2 = 0.2315 | 693.28
333.15 K, 3010 kPa, x2 = 0.4272 | 702.44
333.15 K, 3010 kPa, x2 = 0.8941 | 750.17
333.15 K, 3020 kPa, x2 = 0.3229 | 696.96
333.15 K, 3020 kPa, x2 = 0.7021 | 724.44
333.15 K, 4000 kPa, x2 = 0.7021 | 725.48
333.15 K, 4010 kPa, x2 = 0.1231 | 690.19
333.15 K, 4010 kPa, x2 = 0.2315 | 694.31
333.15 K, 4010 kPa, x2 = 0.4272 | 703.48
333.15 K, 4020 kPa, x2 = 0.3229 | 697.98
333.15 K, 4020 kPa, x2 = 0.8941 | 751.17
333.15 K, 5010 kPa, x2 = 0.2315 | 695.33
333.15 K, 5010 kPa, x2 = 0.3229 | 699.01
333.15 K, 5010 kPa, x2 = 0.4272 | 704.5
333.15 K, 5010 kPa, x2 = 0.8941 | 752.16
333.15 K, 5020 kPa, x2 = 0.1231 | 691.22
333.15 K, 5020 kPa, x2 = 0.7021 | 726.49
333.15 K, 6000 kPa, x2 = 0.7021 | 727.51
333.15 K, 6000 kPa, x2 = 0.8941 | 753.15
333.15 K, 6010 kPa, x2 = 0.2315 | 696.33
333.15 K, 6010 kPa, x2 = 0.4272 | 705.51
